Assay results as given in patent US20020025918A1, “Methods of using helical peptides in plants” (priority 1987, published 2002).
Converted amounts (≈) assume the structure as drawn. Where two headings read alike, the source gives them in different places. Residues, ends and D or L forms follow the SMILES beside them.

How the values were obtained:
E. coli [1] = assay: MBC and MIC susceptibility test; assay type: cell-based
P. aeruginosa = assay: MBC and MIC susceptibility test; assay type: cell-based
S. aureus = assay: MBC and MIC susceptibility test; assay type: cell-based
lymphocytes = assay type: cell-based, human
[2] = Lytic activity (general statement)
B-16 myeloma cells = assay: B-16 cell viability, trypan blue exclusion; assay type: cell-based; settings: for % Cell Viability: 100 μM peptide, one hour
Experimental: (§1) B-16 myeloma cells and normal 3T3 […] fibroblasts were either permitted to attach to the test plate, or treated with trypsin to free the cells from the plastic dish prior to treatment. Cells were then treated with 100 μM lytic peptide for one hour as described above, and cell viability was then determined by trypan blue exclusion.

[3] = 3T3 fibroblast viability, trypan blue exclusion; assay type: cell-based; settings: human, 100 μM peptide, one hour, read-out: % Cell Viability
Experimental: as §1

[4] = system: Human mononuclear leukocytes; assay: 3H-thymidine uptake in WBC (proliferation); assay type: cell-based
Experimental: Human mononuclear leukocytes were isolated from whole blood in the following manner. Blood was collected in vacutainer tubes containing EDTA, and was then diluted with an equal valume of calcium and magnesium-free PBS and layered over Histopaque resin (GIBCO). The tubes were centrifuged for 30 minutes at 25° C. and 450× g. The plasma and platelets above the banded layer of cells in the resulting gradient were removed and discarded. The banded white blood cells were removed to fresh test tubes, washed 3 times with PBS, and resuspended in RPMI medium containing 10% fetal bovine serum (FBS), mercaptoethanol, and penicillin and streptomycin as antibiotics. The cells were then counted and resuspended to a final concentration of 3×10^6 cells/ml.
To each well of a 96 well flat-bottomed microtiter plate was aded 100 μl of cells (3×10^5 cells). Treatment groups were set in quadruplicate samples. The appropriate concentration of test peptide and/or the mitogen hytohemaglutinate (PHA), was added in a total volume of 100 μl of medium to the test wells. The plates were then incubated at 37° C. and 5% CO2 for a duration of 72 hours. At the end of the incubation period, 1 μCi of 3H-thymidine in 1 μl TRIS-HCI, PH8 was added to each well, and the plates incubated an additional 18 hours.
Cellular DNA was harvested onto glass fiber filters using a semi-automatic cell harvester. The glass filters were then placed into vials containing scintillation fluid, and the samples were counted in a scintillation counter. The uptake of 3H-thymidine is an indiator of cell proliferation, thus the higher the number of counts in the sample, the greater the proliferative activity of the cells. The results in Table XI indicate that low dose of the synthetic peptides of this invention stimulate cell growth.

EL-4 lymphoma cells = assay: EL-4 cell killing, trypan blue exclusion; settings: one hour, 37° C.
E. coli [5] = assay: Synergy of lytic peptide with antibiotics
S. auerus = assay: Synergy of lytic peptide with antibiotics
[6] = Role of cytoskeletal structure in susceptibility to lysis, FDD cell viability; settings: donkey, primary fetal donkey dermal cells (FDD), % Viability of Treated DD Cells, 100 μM peptide 15 minutes
[7] = Manitou-1 0.01 μM + Streptomycin 0.5 μM
[8] = Manitou-1 0.01 μM + Streptomycin 5.0 μM
[9] = Manitou-1 0.01 μM + Tetracycline 0.5 μM
[10] = Manitou-1 0.01 μM + Tetracycline 5.0 μM
[11] = Manitou-1 0.01 μM, no antibiotic
[12] = Manitou-1 0.10 μM + Streptomycin 0.5 μM
[13] = Manitou-1 0.10 μM + Streptomycin 5.0 μM
[14] = Manitou-1 0.10 μM + Tetracycline 0.5 μM
[15] = Manitou-1 0.10 μM + Tetracycline 5.0 μM
[16] = Manitou-1 0.10 μM, no antibiotic
[17] = Manitou-1 1.0 μM + Streptomycin 0.5 μM
[18] = Manitou-1 1.0 μM + Streptomycin 5.0 μM
[19] = Manitou-1 1.0 μM + Tetracycline 0.5 μM
[20] = Manitou-1 1.0 μM + Tetracycline 5.0 μM
[21] = Manitou-1 1.0 μM, no antibiotic

CC[C@H](C)[C@H](NC(=O)[C@H](CC(N)=O)NC(=O)[C@H](CCCNC(=N)N)NC(=O)CNC(=O)[C@H](CCSC)NC(=O)[C@H](CCCCN)NC(=O)[C@H](CCC(=O)O)NC(=O)[C@@H](NC(=O)[C@H](CCCCN)NC(=O)[C@H](CC(C)C)NC(=O)[C@H](Cc1ccccc1)NC(=O)[C@@H](NC(=O)[C@H](CCCCN)NC(=O)[C@H](CCC(=O)O)NC(=O)[C@H](CCCCN)NC(=O)[C@@H]1CCCN1C(=O)[C@@H](N)CCSC)C(C)C)[C@@H](C)CC)C(=O)N[C@@H](CCCNC(=N)N)C(=O)N[C@@H](CC(N)=O)C(N)=O [Vishnu-3] (H-MPKEKVFLKIEKMGRNIRN-NH2)
antibacterial result of treatment (Table I; MBC) (E. coli [1]): >64 µM
antibacterial result of treatment (Table I; MBC) (P. aeruginosa; P. aeruginosa (−)): >64 µM
antibacterial result of treatment (Table I; MBC) (S. aureus; S. auerus (+)): >64 µM
stimulation of cell proliferation (in words) (lymphocytes): potent stimulator of cell proliferation
lytic activity (in words) [2]: devoid of lytic activity

CSCC[C@H](NC(=O)[C@H](CCCNC(=N)N)NC(=O)[C@H](CCCCN)NC(=O)[C@@H](N)CCSC)C(=O)N[C@H](C(=O)N[C@@H](CO)C(=O)N[C@@H](Cc1c[nH]c2ccccc12)C(=O)N[C@@H](CO)C(=O)N[C@@H](Cc1ccccc1)C(=O)N[C@@H](CCCCN)C(=O)N[C@@H](CCCCN)C(=O)N[C@@H](CC(C)C)C(=O)N[C@@H](CCCCN)C(=O)N[C@H](C(=O)N[C@@H](CCSC)C(=O)N[C@@H](CCCCN)C(=O)N[C@@H](CCCCN)C(=O)N[C@@H](CC(C)C)C(=O)N[C@@H](CC(C)C)C(=O)N[C@@H](CC(C)C)C(=O)N[C@@H](CC(C)C)C(=O)N[C@@H](CC(C)C)C(=O)N[C@@H](CC(C)C)C(=O)N[C@@H](CS)C(=O)N[C@H](C(=O)N[C@@H](Cc1ccccc1)C(=O)N[C@@H](CC(C)C)C(=O)N[C@H](C(=O)N[C@@H](CCCCN)C(=O)N[C@@H](CO)C(N)=O)C(C)C)C(C)C)[C@@H](C)O)C(C)C [Manitou-1] (H-MKRMVSWSFKKLKTMKKLLLLLLCVFLVKS-NH2)
MBC (E. coli [1]; Table III): 8 µM (≈ 28.9 µg/mL)
MBC (P. aeruginosa; Table III, P. aeuriginosa (−)): 16 µM (≈ 57.8 µg/mL)
MBC (S. aureus; Table III, S. aureus (+)): 32 µM (≈ 116 µg/mL)
% Cell Viability (B-16 myeloma cells; B-16 Monolayer): 19%
% Cell Viability (B-16 myeloma cells; B-16 Suspension (trypsinized)): 0%
selective killing of cancer cells in monolayer culture (in words) (B-16 myeloma cells; B-16 versus 3T3 attached in monolayer): more effective than LSB-37 in selectively killing cancer cells
viability at 1 h, 100 μM ([3]; normal 3T3 human fibroblasts, 3T3 Suspension (trypsinized)): 5%
viability at 1 h, 100 μM ([3]; 3T3 Monolayer): 85%
3H-Thymidine Uptake in WBC, % of Control ([4]; peptide 10 μM, PHA 0 mg): 239%
3H-Thymidine Uptake in WBC, % of Control ([4]; peptide 10 μM, PHA 0.5 mg): 191%
3H-Thymidine Uptake in WBC, % of Control ([4]; peptide 10 μM, PHA 5.0 mg): 125%
3H-Thymidine Uptake in WBC, % of Control ([4]; peptide 25 μM, PHA 0 mg): 325%
3H-Thymidine Uptake in WBC, % of Control ([4]; peptide 25 μM, PHA 0.5 mg): 153%
3H-Thymidine Uptake in WBC, % of Control ([4]; peptide 25 μM, PHA 5.0 mg): 143%
3H-Thymidine Uptake in WBC, % of Control ([4]; peptide 50 μM, PHA 0 mg): 62%
3H-Thymidine Uptake in WBC, % of Control ([4]; peptide 50 μM, PHA 0.5 mg): 61%
3H-Thymidine Uptake in WBC, % of Control ([4]; peptide 50 μM, PHA 5.0 mg): 63%
3H-Thymidine Uptake in WBC, % of Control ([4]; peptide 100 μM, PHA 0 mg): 39%
3H-Thymidine Uptake in WBC, % of Control ([4]; peptide 100 μM, PHA 0.5 mg): 8%
3H-Thymidine Uptake in WBC, % of Control ([4]; peptide 100 μM, PHA 5.0 mg): 0%
% EL-4 Cells Killed (EL-4 lymphoma cells; 10 μM peptide): 5%
% EL-4 Cells Killed (EL-4 lymphoma cells; 25 μM peptide): 28%
% EL-4 Cells Killed (EL-4 lymphoma cells; 50 μM peptide): 78%
% EL-4 Cells Killed (EL-4 lymphoma cells; 100 μM peptide): 100%
% Cell Death In E. coli (E. coli [5]; [7]): 99.9%
% Cell Death In E. coli (E. coli [5]; [8]): 58%
% Cell Death In E. coli (E. coli [5]; [9]): 68%
% Cell Death In E. coli (E. coli [5]; [10]): 88%
% Cell Death In E. coli (E. coli [5]; [11]): 0%
% Cell Death In E. coli (E. coli [5]; [12]): 68%
% Cell Death In E. coli (E. coli [5]; [13]): 99.9%
% Cell Death In E. coli (E. coli [5]; [14]): 0%
% Cell Death In E. coli (E. coli [5]; [15]): 58%
% Cell Death In E. coli (E. coli [5]; [16]): 0%
% Cell Death In E. coli (E. coli [5]; [17]): 0%
% Cell Death In E. coli (E. coli [5]; [18]): 99.9%
% Cell Death In E. coli (E. coli [5]; [19]): 0%
% Cell Death In E. coli (E. coli [5]; [20]): 47%
% Cell Death In E. coli (E. coli [5]; [21]): 0%
interaction with streptomycin in E. Coli (in words) (E. coli [5]; Manitou-1 with streptomycin): synergistic action
% Cell Death In S. auerus (S. auerus; [7]): 0%
% Cell Death In S. auerus (S. auerus; [8]): 87%
% Cell Death In S. auerus (S. auerus; [9]): 0%
% Cell Death In S. auerus (S. auerus; [10]): 35%
% Cell Death In S. auerus (S. auerus; [11]): 0%
% Cell Death In S. auerus (S. auerus; [12]): 0%
% Cell Death In S. auerus (S. auerus; [13]): 95%
% Cell Death In S. auerus (S. auerus; [14]): 0%
% Cell Death In S. auerus (S. auerus; [15]): 35%
% Cell Death In S. auerus (S. auerus; [16]): 0%
% Cell Death In S. auerus (S. auerus; [17]): 0%
% Cell Death In S. auerus (S. auerus; [18]): 86%
% Cell Death In S. auerus (S. auerus; [19]): 0%
% Cell Death In S. auerus (S. auerus; [20]): 35%
% Cell Death In S. auerus (S. auerus; [21]): 0%
viability at 15 minutes, 100 μM ([6]; Cold-treated (4° C.)): 8%
viability at 15 minutes, 100 μM ([6]; Warm-treated (37° C.)): 78%
viability at 15 minutes, 100 μM ([6]; with colchicine 0.1 μg/ml (cytoskeletal inhibitor), Colchicine-treated (0.1 μg/ml)): 30%
viability at 15 minutes, 100 μM ([6]; with cytochalasin D 5 μg/ml (cytoskeletal inhibitor), Cytochalasin D-treated (5 μg/ml)): 23%
